Reference: patent US20170172450A1, “SYSTEM AND METHODS FOR QUANTITATIVELY DESCRIBING BIOPHYSICAL MARKERS” (STC.UNM, priority 2014, published 2017)

Experiments:
[1] = breast tumors of patients; cited from earlier work
[2] = Toxicity monitoring in clinical trial of intraoperative gemcitabine infusion; type: in vivo, human
Experimental: Pancreatic resection was performed using standard techniques and major surgical complications were defined as previously described. […] Serum samples were collected at regular intervals during the operation to determine gemcitabine pharmacokinetics. The MD Anderson Data and Safety Monitoring Board oversaw the study. Drug toxicities were evaluated according to Common Terminology Criteria for Adverse Events version 3.0. Daily postoperative labs including absolute neutrophil counts (ANC) and platelet counts were drawn. Patients received full supportive care and the use of growth factors was permitted for myelosuppression (ANC<0.5×10^9). There were 3 patients with grade III neutropenia or leukopenia, and 3 patients with grade II neutropenia. All cytopenias were transient with nadir at approximately postoperative day 6.

[3] = dose of 300 mg/m^2; cited from earlier work
[4] = Gemcitabine incorporation into DNA of cells in pancreatic tumor and normal pancreas (punch biopsies, Advion assay); type: in vivo, human
Experimental: Pancreatic resection was performed using standard techniques and major surgical complications were defined as previously described. Gemcitabine was administered intravenously at 500 mg/m^2 for the first 2 patients (per IRB safety recommendations) and then subsequently at 1000 mg/m^2 with an infusion pump at a fixed dose rate of 10 mg/m^2/min (over 50 min and 100 min respectively) and was delivered at the start of operation and concluded prior to specimen removal. Serum samples were collected at regular intervals during the operation to determine gemcitabine pharmacokinetics.
Immediately after specimen collection, tumors were bivalved by a surgical pathologist and 4.0 mm punch biopsies were taken from the outer and inner portions of the tumors (median 4 samples per tumor) as well from as the normal pancreas. The punch biopsies were sent for quantitative analysis of the gemcitabine metabolite incorporation into the DNA of the cells within the pancreatic tumor (i.e., cancer and stromal cells) and normal pancreas (Advion BioServices, Ithaca, N.Y.). […]
The pancreatectomy specimens were evaluated by a pathologist. […] The locations of the tumor biopsy samples that were used to quantify gemcitabine incorporation were recorded as either inner or outer tumor. […] These specimens were then processed as previously described for quantitative analysis of gemcitabine DNA incorporation (Advion Biosciences). […]

[5] = 12 PDAC patients, IV 500 or 1000 mg/m^2 at 10 mg/m^2/min during resection, CTCAE version 3.0

| Compound | intra-tumoral heterogeneity in delivery [1] | thrombocytopenia ([2]; 12 PDAC patients, intraoperative IV infusion) | patients with grade II neutropenia [2, 5] [patients] | patients with grade III neutropenia or leukopenia [2, 5] [patients] | nadir of cytopenias ([2]; all cytopenias transient) [postoperative day] | infectious complications ([2]; whole cohort) | differences in gemcitabine incorporation into the primary tumors [3] | gemcitabine incorporation in the tumors relative to normal pancreas ([4]; 12 patients with localized primary PDAC) | drug delivery to tumor ([4]; intraoperative gemcitabine infusion trial) |
| --- | --- | --- | --- | --- | --- | --- | --- | --- | --- |
| COc1cccc2c1C(=O)c1c(O)c3c(c(O)c1C2=O)C[C@@](O)(C(=O)CO)C[C@@H]3O[C@H]1C[C@H](N)[C@H](O)[C@H](C)O1 [doxorubicin] | some parts of the tumor not receiving any drug | – | – | – | – | – | – | – | – |
| Nc1ccn([C@@H]2O[C@H](CO)[C@@H](O)C2(F)F)c(=O)n1 [gemcitabine] | – | No significant thrombocytopenia | 3 | 3 | ~6 | no infectious complications | up to 5 fold | ranged from sub- to supra-normal pancreas levels | measureable drug delivery in all patients |
